Measured values from patent publication US7713965B2, “7-substituted 3-carboxy-oxadiazino-quinolone derivatives, their preparation and their application as anti-bacterials” (Vetoquinol SA, priority 2008, dated 2010).
Converted amounts (≈) assume the structure as drawn.

Assays:
Assay type in all cases: cell-based
Mycoplasma bovis = test: MIC determination by microdilution in liquid medium, Myc bov; settings: Mycoplasmopsis bovis
[1] = tested on: Pseudomonas aeruginosa (r = resistant); test: MIC determination by microdilution in liquid medium, Pse aer r; settings: read-out: MIC Pse aer r
Streptococcus uberis = test: MIC determination by microdilution in liquid medium, Str ube
E. faecalis ATCC 29212 = test: MIC determination by microdilution in liquid medium, E. faecalis ATCC 29212; settings: Enterococcus faecalis, ATCC29212, read-out: MIC E. fae-calis ATCC 29212
[2] = tested on: Mannheimia haemolytica (s = susceptible); test: MIC determination by microdilution in liquid medium, Man hae s; settings: susceptible strain
M. bovirhinis = test: MIC determination by microdilution in liquid medium, M. bovirhinis; settings: Mycoplasma
[3] = tested on: Staphylococcus aureus (r = resistant); test: MIC determination by microdilution in liquid medium, Sta aur r; settings: read-out: MIC Sta aur r
Escherichia coli = test: MIC determination by microdilution in liquid medium, E coli
E. coli ATCC 25922 = test: MIC determination by microdilution in liquid medium, E. coli ATCC 25922; settings: Escherichia coli, ATCC25922
[4] = tested on: Bordetella bronchiseptica; test: MIC determination by microdilution in liquid medium, Bor bron
[5] = tested on: Mannheimia haemolytica (r = resistant); test: MIC determination by microdilution in liquid medium, Man hae r; settings: resistant strain
[6] = tested on: Pseudomonas aeruginosa (s = susceptible); test: MIC determination by microdilution in liquid medium, Pse aer s; settings: susceptible strain
Clostridium perfringens = test: microbe, parasite or virus in culture; settings: read-out: MIC Clo per
[7] = tested on: Staphylococcus aureus (s = susceptible); test: MIC determination by microdilution in liquid medium, Sta aur s; settings: susceptible strain

With CN1COc2c(N3CCC(Nc4nncs4)C3)c(F)cc3c(=O)c(C(=O)O)cn1c23 (stereo not shown) [Example 10, 8-Fluoro-3-methyl-6-oxo-9-[3-([1,3,4]thiadiazol-2-ylamino)-pyrrolidin-1-yl]-2,3-dihydro-6H1-oxa-3,3a-diaza-phenalene-5-carboxylic acid] the MIC (Mycoplasma bovis) was 0.12 mg/L (≈ 0.277 µM), the MIC [1] was > 32 mg/L and the MIC (Streptococcus uberis) was < 0.03 mg/L. The MIC (E. faecalis ATCC 29212) was 0.25 mg/L (≈ 0.578 µM), the MIC [2] was 0.03 mg/L (≈ 0.0694 µM) and the MIC (M. bovirhinis) was 2 mg/L (≈ 4.62 µM). For the same compound, the MIC [3] was 4 mg/L (≈ 9.25 µM), the MIC (Escherichia coli) was 0.25 mg/L (≈ 0.578 µM) and the MIC (E. coli ATCC 25922) was 1 mg/L (≈ 2.31 µM). For the same compound, the MIC [4] was 2 mg/L (≈ 4.62 µM), the MIC [5] was > 32 mg/L and the MIC [6] was 4 mg/L (≈ 9.25 µM). The MIC (Clostridium perfringens) was < 0.03 mg/L and the MIC [7] was < 0.03 mg/L.

For CN1COc2c(N3CC[C@H](Nc4nccs4)C3)c(F)cc3c(=O)c(C(=O)O)cn1c23 [Example 18, 8-Fluoro-3-methyl-6-oxo-9-[(S)-3-(thiazol-2-ylamino)-pyrrolidin-1-yl]-2,3dihydro-6H-1-oxa-3,3a-diaza-phenalene-5-carboxylic acid], the MIC (Mycoplasma bovis) was 0.25 mg/L (≈ 0.579 µM), the MIC [1] was 32 mg/L (≈ 74.2 µM) and the MIC (Streptococcus uberis) was 0.25 mg/L (≈ 0.579 µM). The MIC (E. faecalis ATCC 29212) was ≤ 0.03 mg/L, the MIC [2] was 0.12 mg/L (≈ 0.278 µM) and the MIC (M. bovirhinis) was ≤ 0.03 mg/L. For the same compound, the MIC [3] was 4 mg/L (≈ 9.27 µM), the MIC (Escherichia coli) was 0.5 mg/L (≈ 1.16 µM) and the MIC (E. coli ATCC 25922) was 0.06 mg/L (≈ 0.139 µM). The MIC [4] was 0.25 mg/L (≈ 0.579 µM), the MIC [5] was > 32 mg/L and the MIC [6] was 4 mg/L (≈ 9.27 µM). The MIC (Clostridium perfringens) was 0.06 mg/L (≈ 0.139 µM) and the MIC [7] was < 0.03 mg/L.

For CN1COc2c(N3CC[C@@H](Nc4nccs4)C3)c(F)cc3c(=O)c(C(=O)O)cn1c23 [Example 19, 8-Fluoro-3-methyl-6-oxo-9-[(R)-3-(thiazol-2-ylamino)-pyrrolidin-1-yl]-2,3-dihydro-6H-1-oxa-3,3a-diaza-phenalene-5-carboxylic acid], the MIC (Mycoplasma bovis) was < 0.03 mg/L, the MIC [1] was 8 mg/L (≈ 18.5 µM) and the MIC (Streptococcus uberis) was < 0.03 mg/L. It also gave an MIC (E. faecalis ATCC 29212) of 0.06 mg/L (≈ 0.139 µM), an MIC [2] of 0.03 mg/L (≈ 0.0695 µM) and an MIC (M. bovirhinis) of 0.25 mg/L (≈ 0.579 µM). The MIC [3] was 0.25 mg/L (≈ 0.579 µM), the MIC (Escherichia coli) was 0.06 mg/L (≈ 0.139 µM) and the MIC (E. coli ATCC 25922) was 0.25 mg/L (≈ 0.579 µM). The MIC [4] was 0.12 mg/L (≈ 0.278 µM), the MIC [5] was 8 mg/L (≈ 18.5 µM) and the MIC [6] was 2 mg/L (≈ 4.64 µM). For the same compound, the MIC (Clostridium perfringens) was < 0.03 mg/L and the MIC [7] was < 0.03 mg/L.

CN1COc2c(N3CCC(NC(=O)C(F)(F)F)C3)c(F)cc3c(=O)c(C(=O)O)cn1c23 (stereo not shown) [Example 27, 8-Fluoro-3-methyl-6-oxo-9-[3-(2,2,2-trifluoro-acetylamino)-pyrrolidin-1-yl]-2,3-dihydro-6H-1-oxa-3,3a-diaza-phenalene-5-carboxylic acid] gave an MIC (Mycoplasma bovis) of 1 mg/L (≈ 2.25 µM), an MIC [1] of 2 mg/L (≈ 4.5 µM) and an MIC (Streptococcus uberis) of 0.25 mg/L (≈ 0.563 µM). For the same compound, the MIC (E. faecalis ATCC 29212) was 2 mg/L (≈ 4.5 µM), the MIC [2] was 0.008 mg/L (≈ 0.018 µM) and the MIC (M. bovirhinis) was 1 mg/L (≈ 2.25 µM). It also gave an MIC [3] of 8 mg/L (≈ 18 µM), an MIC (Escherichia coli) of 0.03 mg/L (≈ 0.0675 µM) and an MIC (E. coli ATCC 25922) of 0.03 mg/L (≈ 0.0675 µM). The MIC [4] was 2 mg/L (≈ 4.5 µM), the MIC [5] was 4 mg/L (≈ 9 µM) and the MIC [6] was 0.06 mg/L (≈ 0.135 µM). It also gave an MIC (Clostridium perfringens) of 0.25 mg/L (≈ 0.563 µM) and an MIC [7] of 0.12 mg/L (≈ 0.27 µM).

CN1COc2c(N3CC[C@@H](NC(=O)C(F)(F)F)C3)c(F)cc3c(=O)c(C(=O)O)cn1c23 [Example 29, 8-Fluoro-3-methyl-6-oxo-9-[(R)-3-(2,2,2-trifluoro-acetylamino)-pyrrolidin-1-yl]-2,3-dihydro-6H-1-oxa-3,3a-diaza-phenalene-5-carboxylic acid] showed an MIC (Mycoplasma bovis) of 0.5 mg/L (≈ 1.13 µM), an MIC [1] of 4 mg/L (≈ 9 µM) and an MIC (Streptococcus uberis) of 0.5 mg/L (≈ 1.13 µM). The MIC (E. faecalis ATCC 29212) was 1 to 2 mg/L (≈ 2.25 to 4.5 µM), the MIC [2] was 0.03 mg/L (≈ 0.0675 µM) and the MIC (M. bovirhinis) was 1 mg/L (≈ 2.25 µM). The MIC [3] was 8 mg/L (≈ 18 µM), the MIC (Escherichia coli) was 0.06 mg/L (≈ 0.135 µM) and the MIC (E. coli ATCC 25922) was 0.06 mg/L (≈ 0.135 µM). For the same compound, the MIC [4] was > 1 mg/L, the MIC [5] was 8 mg/L (≈ 18 µM) and the MIC [6] was 0.25 mg/L (≈ 0.563 µM). It also gave an MIC (Clostridium perfringens) of 0.25 mg/L (≈ 0.563 µM) and an MIC [7] of 0.12 mg/L (≈ 0.27 µM).

With CN1COc2c(N3C[C@@H](N)C(C)(C)C3)c(F)cc3c(=O)c(C(=O)O)cn1c23 [Example 34, 9-((S)-4-Amino-3,3-dimethyl-pyrrolidin-1-yl)-8-fluoro-3-methyl-6-oxo-2,3-dihydro-6H-1-oxa-3,3a-diaza-phenalene-5-carboxylic acid] the MIC (Mycoplasma bovis) was 0.5 mg/L (≈ 1.33 µM), the MIC [1] was 8 mg/L (≈ 21.3 µM) and the MIC (Streptococcus uberis) was 0.12 mg/L (≈ 0.319 µM). For the same compound, the MIC (E. faecalis ATCC 29212) was 0.25 to 0.5 mg/L (≈ 0.664 to 1.33 µM), the MIC [2] was 0.03 mg/L (≈ 0.0797 µM) and the MIC (M. bovirhinis) was 0.12 mg/L (≈ 0.319 µM). For the same compound, the MIC [3] was 2 mg/L (≈ 5.31 µM), the MIC (Escherichia coli) was 0.03 mg/L (≈ 0.0797 µM) and the MIC (E. coli ATCC 25922) was 0.03 mg/L (≈ 0.0797 µM). It also gave an MIC [4] of 0.5 mg/L (≈ 1.33 µM), an MIC [5] of 8 mg/L (≈ 21.3 µM) and an MIC [6] of 0.5 mg/L (≈ 1.33 µM). For the same compound, the MIC (Clostridium perfringens) was < 0.03 mg/L and the MIC [7] was < 0.03 mg/L.

With CN1COc2c(N3CCC(C(O)c4nccs4)C3)c(F)cc3c(=O)c(C(=O)O)cn1c23 (stereo not shown) [Example 38, 8-Fluoro-9-[3-(hydroxy-thiazol-2-yl-methyl)-pyrrolidin-1-yl]-3-methyl-6-oxo-2,3-dihydro-6H-1-oxa-3,3a-diaza-phenalene-5-carboxylic acid] the MIC (Mycoplasma bovis) was 0.12 mg/L (≈ 0.269 µM), the MIC [1] was 32 mg/L (≈ 71.7 µM) and the MIC (Streptococcus uberis) was < 0.03 mg/L. It also gave an MIC (E. faecalis ATCC 29212) of 0.06 mg/L (≈ 0.134 µM), an MIC [2] of 0.03 mg/L (≈ 0.0672 µM) and an MIC (M. bovirhinis) of 0.25 mg/L (≈ 0.56 µM). The MIC [3] was 2 mg/L (≈ 4.48 µM), the MIC (Escherichia coli) was 0.12 mg/L (≈ 0.269 µM) and the MIC (E. coli ATCC 25922) was 0.12 mg/L (≈ 0.269 µM). For the same compound, the MIC [4] was 1 mg/L (≈ 2.24 µM), the MIC [5] was 16 mg/L (≈ 35.8 µM) and the MIC [6] was 4 mg/L (≈ 8.96 µM). The MIC (Clostridium perfringens) was < 0.03 mg/L and the MIC [7] was 0.06 mg/L (≈ 0.134 µM).

CN1COc2c(N3CCC(C(N)c4nccs4)C3)c(F)cc3c(=O)c(C(=O)O)cn1c23 (stereo not shown) [Example 39, 9-[3-(Amino-thiazol-2-yl-methyl)-pyrrolidin-1-yl]-8-fluoro-3-methyl-6-oxo-2,3-dihydro-6H-1-oxa-3,3a-diaza-phenalene-5-carboxylic acid] was tested, and the MIC (Mycoplasma bovis) was 0.12 mg/L (≈ 0.269 µM), the MIC [1] was 16 mg/L (≈ 35.9 µM) and the MIC (Streptococcus uberis) was 0.12 mg/L (≈ 0.269 µM). For the same compound, the MIC (E. faecalis ATCC 29212) was 0.12 mg/L (≈ 0.269 µM), the MIC [2] was 0.03 mg/L (≈ 0.0673 µM) and the MIC (M. bovirhinis) was 0.06 mg/L (≈ 0.135 µM). It also gave an MIC [3] of 2 mg/L (≈ 4.49 µM), an MIC (Escherichia coli) of 0.25 mg/L (≈ 0.561 µM) and an MIC (E. coli ATCC 25922) of 0.03 to 0.12 mg/L (≈ 0.0673 to 0.269 µM). It also gave an MIC [4] of 0.5 mg/L (≈ 1.12 µM), an MIC [5] of 16 mg/L (≈ 35.9 µM) and an MIC [6] of 2 mg/L (≈ 4.49 µM). For the same compound, the MIC (Clostridium perfringens) was ≤ 0.03 mg/L and the MIC [7] was ≤ 0.03 mg/L.
